{
  "source": "patent US20250162973A1",
  "about": "“METHODS OF SYNTHESIS AND USES OF AGRIMOL COMPOUNDS” (Versitech Limited, priority 2022, published 2025)",
  "key": {"Hsp60 client Mito-RFP": {"system": "Hsp60 client Mito-RFP", "assay": "Mito-RFP / EGFP fluorescence in transfected cells", "type": "cell-based"}, "[1]": {"system": "stem-like NCI-H460 xenograft", "assay": "Cancer stem like xenograft model", "type": "in vivo, NOD/SCID mice", "conditions": "AGB 3 mg/kg, tail intravenous injection", "method": "In vivo anticancer efficacy of AGB was evaluated using the human tumor xenograft model, in which human cancer cells were inoculated into immune-deficiency mice. Briefly, twelve six-week-old (16-18 g) BALB/c nude mice were randomly divided into two groups and both received subcutaneous injection of NCI-H460 cells (2 million cells in 0.1 mL PBS) at its right flank of mice and tumor became palpable after three days of injection. Mice were received intravenous (i.v.) injections of AGB or vehicle control (10% DMSO and 0.05% Tween 80 in normal saline) every two days in two weeks. The length and width of tumor were measured by Vernier caliper and the body weight was monitored every two or three days. At the end of experiment, mice were sacrificed and decapitated. The liver, kidney, and tumor were collected and fixed in 4% formaldehyde for further haematoxylin and eosin (H&E) staining. All animal experiments in this project received human care and study protocols complied with the guidelines of the Laboratory Animal Services Centre of the University of Hong Kong. Tumor sizes and body weight were recorded before the drug injection every time and tumor volume (V) was calculated by the formula V=LW^2/2, where L is tumor length and W is tumor width. […]\nThe in vivo antitumor potential of AGB using the xenograft mouse model was assessed. […]"}, "H460 cell line": {"system": "H460 cell line", "assay": "MTT cell viability assay", "type": "cell-based, human", "conditions": "Homo sapiens, NCI-H460", "method": "(§1) SUNE1 (nasopharyngeal carcinoma), AGS (gastric adenocarcinoma), HeLa (cervix adenocarcinoma), HepG2 (hepatocellular carcinoma), U-87 MG (human glioblastoma cell), U2OS (osteosarcoma), MCF-7 (breast adenocarcinoma), MDA-MB-231 (breast adenocarcinoma), HCT116 (colorectal carcinoma), SW480 (colorectal adenocarcinoma), NCI-H460 (large cell lung carcinoma), NCI-H1650 (adenocarcinoma lung carcinoma), HCC827 (adenocarcinoma lung carcinoma), A549 (lung carcinoma), and CCD-19Lu (human lung fibroblast normal cell) were all obtained from American Type Culture Collection (ATCC, Manassas, VA, USA). Minimum Essential Media (MEM, Gibco®, ThermoFisher Scientific), Dulbecco's Modified Eagle Medium (DMEM, Gibco®, ThermoFisher Scientific), and RPMI-1640 Medium (Gibco®, ThermoFisher Scientific) supplemented with 10% Fetal Bovine Serum (Gibco®, ThermoFisher Scientific), and 100 U/mL penicillin-streptomycin (Gibco™, ThermoFisher Scientific) were used for cell culture. Cells were placed into an incubator with 5% CO2 that temperature was set at 37° C. For subculturing cells, 0.05% Trypsin-EDTA (Gibco®) was used for detaching and a subcultivation ratio of 1:5 was used.\n(§2) The cell viability assay was performed by a typical MTT assay. Briefly, 5*10^3 cells were seeded in the 96-well flat bottom plate and allowed to attach overnight. After drug treatment with a serial dilution from 100 μM for 48 h, 10 μL of MTT solution (5 mg/ml prepared in PBS, filtered) was added into each well and incubate for 4 h at 37° C. The formed formazan was then dissolved with SDS solution (10% SDS in 10 mM HCl) and followed the determination of absorbance at 590 nm by a microplate reader. The change in cell viability was then calculated for each drug concentration, then normalized to control. Dose response curves from each assay were fit to a Boltzmann sigmoidal function (GraphPad Prism8, version8.0.0). The cytotoxicity of AGB and its derivatives was determined by the calculation of IC50 value (half maximal inhibitory concentration) from fitted curves, which was the concentration of drug induced 50% cell viability."}, "HeLa cell line": {"system": "HeLa cell line", "assay": "MTT cell viability assay", "type": "cell-based, human", "conditions": "Homo sapiens, HeLa; MTT method, 48 h; read-out: IC50 HeLa cell line", "method": "as §1, §2"}, "AGS cell line": {"system": "AGS cell line", "assay": "MTT cell viability assay", "type": "cell-based, human", "conditions": "Homo sapiens, AGS; MTT method, 48 h", "method": "as §1, §2"}, "[2]": {"system": "mitochondria of NCI-H460 cells", "assay": "Mitochondrial morphology and fusion/fission proteins (MitoTracker, Western Blot, immunofluorescence, TEM)", "type": "cell-based, human", "description": "Mitochondria are highly dynamic organelles that frequently fuse and fragment, with the ability to change size, shape, and position. The dynamic nature of mitochondria is important for mitochondrial inheritance and for the maintenance of mitochondrial functions. When the balance between fission and fusion is disrupted, as result of a relative increase or decrease in either process, the overall mitochondrial morphology is changed markedly.\nSeveral proteins that control mitochondrial fusion and fission have been identified, including mitofusins and OPA1 for fusion, and Mff and DRP1 for fission. The effects of AGB on the expression of mitochondrial fusion proteins (Mfn1 and Mfn2) and fission proteins (DRP1 and Mff) were studied. […] DRP1 phosphorylation at residue S637 by protein kinase A inhibits mitochondrial fission whereas dephosphorylation at S637 increases mitochondrial recruitment of DRP1 and promotes mitochondrial fission. The localization of DRP1 was examined by the immunofluorescence staining.\nOPA1 is another protein localized at the inner mitochondrial membrane and is involved in different function like regulation of mitochondrial morphology dynamics, maintenance of respiratory chain, and control of ATP synthesis. The decrease of L-OPA1 causes inhibition of mitochondrial fusion, whereas the accumulation of S-OPA1 facilitates mitochondrial fission. […] OPA1 plays a role in maintaining the mitochondrial cristae structure. OPA1 fragmentation leads to a disorganization of the structure of the mitochondrial inner membrane. The ultrastructure of mitochondria was observed under transmission electron microscopy (TEM) with the treatment of AGB or vehicle for 16 h."}, "[3]": {"assay": "Safety in xenograft mice (body weight, H&E staining)", "type": "in vivo", "method": "In vivo anticancer efficacy of AGB was evaluated using the human tumor xenograft model, in which human cancer cells were inoculated into immune-deficiency mice. Briefly, twelve six-week-old (16-18 g) BALB/c nude mice were randomly divided into two groups and both received subcutaneous injection of NCI-H460 cells (2 million cells in 0.1 mL PBS) at its right flank of mice and tumor became palpable after three days of injection. Mice were received intravenous (i.v.) injections of AGB or vehicle control (10% DMSO and 0.05% Tween 80 in normal saline) every two days in two weeks. The length and width of tumor were measured by Vernier caliper and the body weight was monitored every two or three days. At the end of experiment, mice were sacrificed and decapitated. The liver, kidney, and tumor were collected and fixed in 4% formaldehyde for further haematoxylin and eosin (H&E) staining. All animal experiments in this project received human care and study protocols complied with the guidelines of the Laboratory Animal Services Centre of the University of Hong Kong. Tumor sizes and body weight were recorded before the drug injection every time and tumor volume (V) was calculated by the formula V=LW^2/2, where L is tumor length and W is tumor width. The relative tumor volume that normalized to day 0 was used to monitor the tumor growth. Data in each group was shown as mean±standard deviation.\nThe in vivo antitumor potential of AGB using the xenograft mouse model was assessed. Two different cancer cells (NCI-H460 and A549) were inoculated subcutaneously into the nude mice. Non-obese diabetic severe combined immunodeficient (NOD/SCID) mice were used for stem-like NCI-H460 cells. The mice were then treated by tail intravenous injection with vehicle or AGB (3 mg/kg). […] To further evaluate the safety of AGB, hematoxylin-eosin (H&E) staining of the kidney, liver, and tumor samples were performed (FIG. 1K). The necrotic area (circled by dashed line) in the tumor tissue from mice treated with AGB was much larger than that in vehicle group."}},
  "note": "Read-outs that look alike come from different tables or passages of the source.",
  "data": [
    {"compound": "CCCC(=O)c1c(O)c(Cc2c(O)c(Cc3c(O)c(C)c(OC)c(C(=O)CCC)c3O)c(O)c(C(=O)[C@@H](C)CC)c2O)c(O)c(C)c1OC", "note": "[AGB, Agrimol B]", "values": [
      {"measurement": "EGFP fluorescence", "setting": "Hsp60 client Mito-RFP; cells transfected with EGFP-expressing construct", "value": "did not show changes in fluorescence"},
      {"measurement": "mitochondrial fluorescence (Mito-RFP) vs vehicle", "setting": "Hsp60 client Mito-RFP; cells transfected with Mito-RFP", "value": "significant reduction of mitochondrial fluorescence"},
      {"measurement": "tumor growth inhibition rate", "setting": "[1]", "value": 64, "unit": "%"},
      {"measurement": "IC50", "setting": "H460 cell line; MTT method, 48 h, read-out: IC50 H460 cell line", "value": 1850, "unit": "nM"},
      {"measurement": "IC50", "setting": "H460 cell line; for 48 h, cell line not given, read-out: IC50 value of AGB", "value": 2300, "unit": "nM"},
      {"measurement": "IC50", "setting": "HeLa cell line", "value": 810, "unit": "nM"},
      {"measurement": "IC50", "setting": "AGS cell line", "value": 2650, "unit": "nM"},
      {"measurement": "morphology of mitochondria (MitoTracker Green)", "setting": "[2]; 4 μM AGB, 0-16 h", "value": "gradually changed into significant punctuated structures"},
      {"measurement": "ultrastructure of mitochondria (TEM)", "setting": "[2]; 16 h treatment", "value": "circular vesicles of reduced diameter predominated"},
      {"measurement": "expression of DRP1 and Mff", "setting": "[2]; Western Blot", "value": "did not alter"},
      {"measurement": "phosphor-DRP1 (Ser637)", "setting": "[2]; Western Blot", "value": "significant decrease"},
      {"measurement": "OPA1 cleavage from L-OPA1 into S-OPA1", "setting": "[2]; Western Blot, dose and time dependent", "value": "promoted OPA1 cleavage"},
      {"measurement": "expression of Mfn1 and Mfn2", "setting": "[2]; Western Blot, dose-dependent", "value": "slightly decreased"},
      {"measurement": "translocation of DRP1 from cytoplasm into mitochondria", "setting": "[2]; immunostaining, mito-RFP-transfected cells", "value": "significantly promoted"},
      {"measurement": "observable toxicity (body weight of mice)", "setting": "[3]; 3 mg/kg of AGB", "value": "did not show any observable toxicity"},
      {"measurement": "liver and kidney histology (H&E)", "setting": "[3]; after treatment with AGB", "value": "did not show any obvious change"},
      {"measurement": "necrotic area in the tumor tissue vs vehicle group (H&E)", "setting": "[3]; mice treated with AGB", "value": "much larger"}
    ]}
  ]
}
